Reference: the supplement of paper PMC11061612

Legend:
AZD1775 = compound: C=CCn1c(=O)c2cnc(Nc3ccc(N4CCN(C)CC4)cc3)nc2n1-c1cccc(C(C)(C)O)n1 [AZD1775]; details: max 3 µM
Summary of the method: (§1)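 Cancer cell lines were dosed for 72 hours (final DMSO typically 0.2%) after 24 hours at 37°C and 5% CO2 in 1536-well plates containing 7.5 μl DMEM/F12 or RPMI with 10% FBS. Viability came from CellTiter-Glo 2.0 luminescence, scaled between blank-well and DMSO-well means, and dose responses were fitted to a two-parameter logistic curve with a non-linear mixed effects model. The single-agent IC50 was obtained from this fit.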

MK-2206 = compound: NC1(c2ccc(-c3nc4ccn5c(=O)[nH]nc5c4cc3-c3ccccc3)cc2)CCC1 [MK-2206]; details: max 10 µM
Summary of the method: as §1

Paclitaxel = compound: CC(=O)O[C@H]1C(=O)[C@@]2(C)[C@H]([C@H](OC(=O)c3ccccc3)[C@]3(O)C[C@H](OC(=O)[C@H](O)[C@@H](NC(=O)c4ccccc4)c4ccccc4)C(C)=C1C3(C)C)[C@]1(OC(C)=O)CO[C@@H]1C[C@@H]2O [Paclitaxel]; details: max 3 µM
Summary of the method: as §1

AZD0156 = compound: CN(C)CCCOc1ccc(-c2ccc3ncc4c(c3c2)n(C2CCOCC2)c(=O)n4C)cn1 [AZD0156]; details: max 3 µM
Summary of the method: as §1

Olaparib = compound: O=C(c1cc(Cc2n[nH]c(=O)c3ccccc23)ccc1F)N1CCN(C(=O)C2CC2)CC1 [Olaparib]; details: max 10 µM
Summary of the method: as §1

SRA737 = compound: N#Cc1cnc(Nc2cc(NC[C@H]3CNCCO3)c(C(F)(F)F)cn2)cn1 [SRA737]; details: max 10 µM
Summary of the method: as §1

Trametinib = compound: CC(=O)Nc1cccc(-n2c(=O)n(C3CC3)c(=O)c3c(Nc4ccc(I)cc4F)n(C)c(=O)c(C)c32)c1 [Trametinib]; details: max 1 µM
Summary of the method: as §1

AZD8186 = compound: C[C@@H](Nc1cc(F)cc(F)c1)c1cc(C(=O)N(C)C)cc2c(=O)cc(N3CCOCC3)oc12 [AZD8186]; details: max 10 µM
Summary of the method: as §1

Lapatinib = compound: CS(=O)(=O)CCNCc1ccc(-c2ccc3ncnc(Nc4ccc(OCc5cccc(F)c5)c(Cl)c4)c3c2)o1 [Lapatinib]; details: max 10 µM
Summary of the method: as §1

AZD6738 = compound: C[C@@H]1COCCN1C2=NC(=NC(=C2)C3(CC3)[S@](=N)(=O)C)C4=C5C=CNC5=NC=C4 [AZD6738]; details: max 10 µM
Summary of the method: as §1

AZD4320 = compound: CN(CC[C@H](CSC1=CC=CC=C1)NC2=C(C=C(C=C2)S(=O)(=O)NC(=O)C3=CC=C(C=C3)N4CCC(CC4)[C@H](C5=CC=CC=C5C6=CC=C(C=C6)Cl)O)S(=O)(=O)C(F)(F)F)CCO [AZD4320]; details: max 1 µM
Summary of the method: as §1

Carboplatin = compound: C1CC(C1)(C(=O)[O-])C(=O)[O-].N.N.[Pt+2] [Carboplatin]; details: max 10 µM
Summary of the method: as §1

Savolitinib = compound: C[C@@H](c1ccc2nccn2c1)n1nnc2ncc(-c3cnn(C)c3)nc21 [Savolitinib]; details: max 1 µM
Summary of the method: as §1

SN-38 = compound: CCc1c2c(nc3ccc(O)cc13)-c1cc3c(c(=O)n1C2)COC(=O)[C@]3(O)CC [SN-38]; details: max 0.3 µM
Summary of the method: as §1

AZD5153 = compound: COc1nnc2ccc(N3CCC(c4ccc(OCCN5CCN(C)C(=O)[C@H]5C)cc4)CC3)nn12 [AZD5153]; details: max 1 µM
Summary of the method: as §1

Alisertib = compound: COc1cc(Nc2ncc3c(n2)-c2ccc(Cl)cc2C(c2c(F)cccc2OC)=NC3)ccc1C(=O)O [Alisertib]; details: max 10 µM
Summary of the method: as §1

Gemcitabine = compound: Nc1ccn([C@@H]2O[C@H](CO)[C@@H](O)C2(F)F)c(=O)n1 [Gemcitabine]; details: max 0.3 µM
Summary of the method: as §1

Crizotinib = compound: C[C@@H](Oc1cc(-c2cnn(C3CCNCC3)c2)cnc1N)c1c(Cl)ccc(F)c1Cl [Crizotinib]; details: max 10 µM
Summary of the method: as §1

Selumetinib = compound: Cn1cnc2c(F)c(Nc3ccc(Br)cc3Cl)c(C(=O)NOCCO)cc21 [Selumetinib]; details: max 10 µM
Summary of the method: as §1

AZD7648 = compound: Cc1cc2ncnn2cc1Nc1ncc2c(n1)n(C1CCOCC1)c(=O)n2C [AZD7648]; details: max 10 µM
Summary of the method: as §1

Taselisib = compound: Cc1nc(-c2cn3c(n2)-c2ccc(-c4cnn(C(C)(C)C(N)=O)c4)cc2OCC3)n(C(C)C)n1 [Taselisib]; details: max 10 µM
Summary of the method: as §1

Dasatinib = compound: CC1=C(C(=CC=C1)Cl)NC(=O)C2=CN=C(S2)NC3=CC(=NC(=N3)C)N4CCN(CC4)CCO [Dasatinib]; details: max 2 µM
Summary of the method: as §1

AZD2811 = compound: CCN(CCO)CCCOc1ccc2c(Nc3cc(CC(=O)Nc4cccc(F)c4)[nH]n3)ncnc2c1 [AZD2811]; details: max 1 µM
Summary of the method: as §1

5-Fluorouracil = compound: O=c1[nH]cc(F)c(=O)[nH]1 [5-Fluorouracil]; details: max 20 µM
Summary of the method: as §1

Palbociclib = compound: CC(=O)c1c(C)c2cnc(Nc3ccc(N4CCNCC4)cn3)nc2n(C2CCCC2)c1=O [Palbociclib]; details: max 10 µM
Summary of the method: as §1

AZD5363 = compound: C1CN(CCC1(C(=O)N[C@@H](CCO)C2=CC=C(C=C2)Cl)N)C3=NC=NC4=C3C=CN4 [AZD5363]; details: max 10 µM
Summary of the method: as §1

Venetoclax = compound: CC1(C)CCC(CN2CCN(c3ccc(C(=O)NS(=O)(=O)c4ccc(NCC5CCOCC5)c([N+](=O)[O-])c4)c(Oc4cnc5[nH]ccc5c4)c3)CC2)=C(c2ccc(Cl)cc2)C1 [Venetoclax]; details: max 1 µM
Summary of the method: as §1

Gefitinib = compound: COc1cc2ncnc(Nc3ccc(F)c(Cl)c3)c2cc1OCCCN1CCOCC1 [Gefitinib]; details: max 10 µM
Summary of the method: as §1

Etoposide = compound: COc1cc([C@@H]2c3cc4c(cc3[C@@H](O[C@@H]3O[C@@H]5CO[C@@H](C)O[C@H]5[C@H](O)[C@H]3O)[C@H]3COC(=O)[C@H]23)OCO4)cc(OC)c1O [Etoposide]; details: max 10 µM
Summary of the method: as §1

AZD5991 = compound: Cc1c2c(nn1C)CSCc1cc(n(C)n1)CSc1cc(c3ccccc3c1)OCCCc1c(C(=O)O)n(C)c3c-2c(Cl)ccc13 [AZD5991]; details: max 1 µM
Summary of the method: as §1

Doxorubicin = compound: COc1cccc2c1C(=O)c1c(O)c3c(c(O)c1C2=O)C[C@@](O)(C(=O)CO)C[C@@H]3O[C@H]1C[C@H](N)[C@H](O)[C@H](C)O1 [Doxorubicin]; details: max 1 µM
Summary of the method: as §1

[1] = compound: O=C(Nc1ccc2[nH]nc(-c3ccncc3)c2c1)[C@@H]1CCN(CC(=O)N2CCN(c3ccc(-c4ncccn4)cc3)CC2)C1; details: max 5 µM
Summary of the method: as §1

Prexasertib = compound: COc1cccc(OCCCN)c1-c1cc(Nc2cnc(C#N)cn2)n[nH]1 [Prexasertib]; details: max 1 µM
Summary of the method: as §1

SG3199 = compound: CC1=CN2[C@@H](C1)C=NC3=CC(=C(C=C3C2=O)OC)OCCCCCOC4=C(C=C5C(=C4)N=C[C@@H]6CC(=CN6C5=O)C)OC [SG3199]; details: max 0.001 µM
Summary of the method: as §1

AZD1390 = compound: CC(C)n1c(=O)n(C)c2cnc3cc(F)c(-c4ccc(OCCCN5CCCCC5)nc4)cc3c21 [AZD1390]; details: max 0.3 µM
Summary of the method: as §1

Cell Line	IC50, cell viability 72 h (AZD1775) [µM]	IC50, cell viability 72 h (MK-2206) [µM]	IC50, cell viability 72 h (Paclitaxel) [µM]	IC50, cell viability 72 h (AZD0156) [µM]	IC50, cell viability 72 h (Olaparib) [µM]	IC50, cell viability 72 h (SRA737) [µM]	IC50, cell viability 72 h (Trametinib) [µM]	IC50, cell viability 72 h (AZD8186) [µM]	IC50, cell viability 72 h (Lapatinib) [µM]	IC50, cell viability 72 h (AZD6738) [µM]	IC50, cell viability 72 h (AZD4320) [µM]	IC50, cell viability 72 h (Carboplatin) [µM]	IC50, cell viability 72 h (Savolitinib) [µM]	IC50, cell viability 72 h (SN-38) [µM]	IC50, cell viability 72 h (AZD5153) [µM]	IC50, cell viability 72 h (Alisertib) [µM]	IC50, cell viability 72 h (Gemcitabine) [µM]	IC50, cell viability 72 h (Crizotinib) [µM]	IC50, cell viability 72 h (Selumetinib) [µM]	IC50, cell viability 72 h (AZD7648) [µM]	IC50, cell viability 72 h (Taselisib) [µM]	IC50, cell viability 72 h (Dasatinib) [µM]	IC50, cell viability 72 h (AZD2811) [µM]	IC50, cell viability 72 h (5-Fluorouracil) [µM]	IC50, cell viability 72 h (Palbociclib) [µM]	IC50, cell viability 72 h (AZD5363) [µM]	IC50, cell viability 72 h (Venetoclax) [µM]	IC50, cell viability 72 h (Gefitinib) [µM]	IC50, cell viability 72 h (Etoposide) [µM]	IC50, cell viability 72 h (AZD5991) [µM]	IC50, cell viability 72 h (Doxorubicin) [µM]	IC50, cell viability 72 h [1] [µM]	IC50, cell viability 72 h (Prexasertib) [µM]	IC50, cell viability 72 h (SG3199) [µM]	IC50, cell viability 72 h (AZD1390) [µM]
NCI-H64 (Small Cell Lung Carcinoma)	0.236	> 10	0.527	> 3	> 10	3.84	> 1	> 10	> 10	3.17	0.23	> 10	> 1	> 0.3	> 1	4.9	> 0.3	5.17	> 10	> 10	> 10	> 2	0.597	> 20	> 10	> 10	> 1	> 10	> 10	> 1	> 1	> 5	0.0196	> 0.001	> 0.3
NCI-H1581 (Non-Small Cell Lung Carcinoma)	1.77	> 10	0.00382	> 3	> 10	> 10	0.545	> 10	> 10	> 10	> 1	> 10	> 1	0.0795	> 1	2.06	0.195	> 10	> 10	> 10	> 10	> 2	> 1	> 20	> 10	> 10	> 1	> 10	5.32	0.163	> 1	3.23	> 1	> 0.001	> 0.3
NCI-H1666 (Lung Adenocarcinoma)	> 3	> 10	0.794	> 3	> 10	> 10	0.103	> 10	> 10	> 10	> 1	> 10	> 1	0.238	> 1	> 10	> 0.3	> 10	7.17	> 10	3.2	> 2	> 1	> 20	> 10	> 10	> 1	> 10	> 10	> 1	> 1	> 5	> 1	> 0.001	> 0.3
NCI-H2066 (Squamous Cell Lung Carcinoma)	> 3	> 10	0.32	> 3	> 10	> 10	> 1	> 10	> 10	> 10	> 1	> 10	> 1	> 0.3	> 1	> 10	> 0.3	> 10	> 10	> 10	3.92	> 2	> 1	> 20	> 10	> 10	> 1	> 10	> 10	> 1	> 1	> 5	> 1	> 0.001	> 0.3
NY (Osteosarcoma)	0.538	> 10	0.00726	> 3	> 10	3.44	> 1	> 10	> 10	> 10	> 1	> 10	> 1	0.0161	> 1	> 10	0.041	> 10	> 10	> 10	> 10	> 2	> 1	> 20	> 10	> 10	> 1	> 10	> 10	> 1	> 1	> 5	0.115	> 0.001	> 0.3
